Measurements as given in publication PMC10969560, “Eye Drop with Fas-Blocking Peptide Attenuates Age-Related Macular Degeneration” (Cells, 2024).

Legend:
[1] = test system: NaIO3-induced retinal degeneration mice; experiment: H&E histology in NaIO3-induced retinal degeneration mouse model; assay type: in vivo, BALB/c mice; settings: NaIO3 30 mg/kg i.v., N=3, Figure 3B
Procedure: (§1) To confirm the therapeutic effect of 6R-FBP, histological evaluation was conducted through hematoxylin and eosin (H&E) staining and the TUNEL assay. The eyes were fixed with 4% paraformaldehyde in PBS at room temperature for 20 min. After fixation, the eyes were sequentially incubated in 10%, 20%, and 30% (w/v) sucrose solution diluted in PBS for 30 min each at room temperature. Subsequently, the eyeballs were sagittally halved with a razor blade and embedded in Tissue-Tek® OCT Compound, and then frozen immediately in a liquid nitrogen chamber. Trimming was minimized to maintain controlled distances and ensure consistency, and sections were sliced at a thickness of 10 μm. Sections from the eye cryoblock were used for H&E staining and the TUNEL assay. The TUNEL assay was conducted according to the manufacturer’s protocol using the TUNEL assay kit (Abcam).

[2] = test system: NaIO3-induced retinal degeneration mice; experiment: In vivo real-time PCR of eye posterior hemisphere in NaIO3-induced retinal degeneration mouse model; design: species or system BALB/c mice; settings: N=3, Figure 3D; for expression of Fas receptor, inflammatory cytokines, and macrophages compared to the mock group (qPCR): posterior hemisphere
From the text: The mouse eye posterior hemisphere was dissected using Vannas scissors. Subsequently, total RNA was extracted from the posterior hemisphere of the left eye using the RNAiso kit (Takara). RNA was reverse-transcribed with the High-Capacity cDNA Reverse Transcription Kit (Applied Biosystems, Waltham, MA, USA) and quantified using PowerUp™ SYBR™ Green Master Mix (Thermo Fisher Scientific, Waltham, MA, USA) on an ABI 7500 Fast Real-Time PCR system (Applied Biosystems, Waltham, MA, USA). Relative expression was determined using the ΔΔCt method, normalized against GAPDH mRNA levels. The primer sequences used are depicted in Table 2.

[3] = test system: NaIO3-induced retinal degeneration mice; experiment: TUNEL assay in NaIO3-induced retinal degeneration mouse model; assay type: in vivo, BALB/c mice; settings: N=3, Figure 3C
Procedure: as §1

[4] = test system: Jurkat cells; experiment: Flow cytometry analysis of Fas/FasL-mediated apoptosis in Jurkat cells; assay type: cell-based; settings: N=3, Figure S4B
From the text: (§2) Figure S4. Size- dependent FBP binding test in Jurkat cells. (A) Size- dependent FBP flow cytometry analysis of binding in Jurkat cells. (B) Size-dependent FBP flow cytometry analysis of apoptosis in Jurkat cells. The data are pres en ted as the mean ± SD (N=3 per group). *P<0.05, ***P<0.001, and ns indicates not

[5] = test system: Fas-expressing Jurkat cells; experiment: Size-dependent FBP binding test in Jurkat cells (flow cytometry); settings: N=3, Figure S4A
From the text: as §2

[6] = test system: NaIO3-induced retinal degeneration mice; settings: mouse, in vivo
Procedure: Retinal degeneration was induced by intravenous injection of NaIO3 (30 mg/kg) in 6-week-old male BALB/c mice (N = 3 per group), weighing 18–22 g (Orient Bio, Seoul, Korea). The eye drop administration group received peptides dissolved in PBS at dosages of 10 mg/mL (50 μg/5 μL) per ocular instillation. For intravitreal administration, peptide solutions dissolved in PBS were administered into the vitreous humor at a concentration of 1 mg/mL (1 μg/1 μL) per administration.
The N-terminal of the target peptide was fluorescently tagged using Alexa Fluor™ 647 NHS Ester (Succinimidyl Ester) (Invitrogen, Carlsbad, CA, USA), following the manufacturer’s protocol. Subsequently, free dye molecules were removed through a PD-10 desalting column (GE Healthcare, Milwaukee, WI, USA). Seven days after induction with NaIO3, Alexa647-conjugated peptides were administered via eye drops. Twelve hours after the last administration, organs were harvested for experiments, and Alexa647 signals were detected on whole organs using a FOBI imaging machine ([sequence], Cheongju, Republic of Korea).
For IHC, eyes were harvested and embedded in the Tissue-Tek® OCT Compound (Sakura Finetek Europe BV, Alphen aan den Rijn, The Netherlands) to prepare cryoblocks for cryosectioning. After freezing the eyes in the Tissue-Tek® OCT Compound, the eyes were cryosectioned to a thickness of 10 μm and mounted with ProLong™ Glass Antifade Mountant with NucBlue™ Stain (Invitrogen). The anti-Fas rabbit mAb (#4233S, Cell Signaling Technology, Danvers, MA, USA) was used to capture the Fas receptor, and the Fas antibody was subsequently detected using Goat Anti-Rabbit IgG H&L (Alexa Fluor® 488) (ab150077, Abcam, Cambridge, UK). A ZEISS Axio Scan.Z1 Slide Scanner (Carl Zeiss, Oberkochen, Germany) was employed to detect NucBlue™ stained cell nuclei and the Alexa647-conjugated peptide signals.

[7] = test system: cleaved caspase-3 and 8; experiment: Western blot of apoptosis-related proteins in NaIO3-treated ARPE-19 cells; assay type: cell-based, human; settings: ARPE-19, NaIO3-treated; Figure 1C
Procedure: Total protein samples were extracted from ARPE-19 cells using ice-cold RIPA buffer containing a protease inhibitor cocktail. A 4× sample buffer containing Tris-(2-Carboxyethyl)phosphine (Invitrogen, Carlsbad, CA, USA) was prepared by mixing 950 µL of 4× Laemmli sample buffer (GenDEPOT) with 50 µL of Tris-(2-Carboxyethyl)phosphine (Invitrogen). Protein samples (15 μg) were diluted in the sample buffer and heated at 95 °C for 5 min. The samples were then loaded onto a 12% SDS-PAGE gel and transferred onto a PVDF transfer membrane. The blots were probed with rabbit anti-cleaved caspase-3 (1:1000, Abcam, Cambridge, UK, ab52293), anti-cleaved caspase-8 (1:1000, Abcam, ab25901) and rabbit polyclonal anti-Fas (1:1000, Abcam, ab82419). Secondary polyclonal antibodies were probed with rabbit IgG coupled to HRP (1:2000, Abcam, ab97051). Finally, the blots were developed using ECL Western blotting substrate (Promega, Madison, WI, USA).

[8] = test system: Fas; experiment: RT-PCR of Fas expression in NaIO3-treated ARPE-19 cells; assay type: cell-based, human; settings: ARPE-19, NaIO3 10 mM + peptide 700 μM, 24 h; N=3; Figure 1A
Procedure: (§3) After 24 h of treatment with NaIO3 (10 mM) and the FBP peptide (700 μM), the cells were harvested for analysis. Total RNA from the ARPE-19 cells was extracted using the RNAiso kit (Takara, Kyoto, Japan). Total RNA was reverse-transcribed into cDNA using the High-Capacity cDNA Reverse Transcription Kit (Applied Biosystems, Waltham, MA, USA). The quantification of gene expression was performed using PowerUp™ SYBR™ Green Master Mix (Thermo Fisher Scientific, Waltham, MA, USA) on an ABI 7500 Fast Real-Time PCR system (Applied Biosystems, Waltham, MA, USA). The sequences of primer pairs used for real-time PCR are depicted in Table 2.

[9] = test system: ARPE-19 cells; experiment: Annexin V/PI flow cytometry apoptosis analysis in NaIO3-treated ARPE-19 cells; assay type: cell-based, human; settings: ARPE-19, NaIO3 10 mM + peptide 700 μM, 24 h; N=3; Figure 1B
Procedure: The efficacy of FBP on the inhibition of ARPE-19 cell apoptosis was assessed through annexin V/propidium iodide (PI) staining, followed by flow cytometry analysis. […] After 24 h of treatment with NaIO3 (10 mM) and the FBP peptide (700 μM), the cells were harvested and stained using the Dead Cell Apoptosis Kits with annexin V for Flow Cytometry (Invitrogen, Carlsbad, CA, USA), following the manufacturer’s protocol. The stained cells were collected and analyzed using a BD FACSCalibur™ system (Becton Dickinson, Franklin Lakes, NJ, USA).

[10] = test system: NaIO3-induced retinal degeneration rabbits; experiment: Fundus imaging of RPE degenerated area in NaIO3-induced retinal degeneration rabbit model; assay type: in vivo, chinchilla rabbits; settings: for RPE degeneration compared with mock treatment (fundus imaging): NaIO3 60 mg/kg i.v., N=4, Figure 4B; for level of RPE degeneration on day 14 compared with mock group (fundus imaging): day 14, N=4, Figure 4B
Procedure: (§4) The efficacy of the treatment was evaluated through an experiment conducted by KNOTUS, a contract research organization. In brief, retinal degeneration was induced by intravenous injection of NaIO3 (60 mg/kg) in 20 chinchilla rabbits, weighing 2 kg.
(§5) The eye drop administration group received dosages of 5 mg/mL (250 μg/50 μL) per ocular instillation. For intravitreal administration, peptide solutions (5 mg/mL) were administered in increments of 40 μL per administration. A pipette was used to administer the test substance onto the central cornea of the right eye for each experimental group.
(§6) Anesthetized animals were administered the test substance via subconjunctival injection into the right eye using a 31-gauge syringe needle attached to a syringe. In the case of eye drop administration, the peptides and PBS were administered twice daily for 2 weeks, for a total of 28 administrations. For intravitreal administration, a single dose of the peptide was administered the day after the NaIO3 injection.
Before the administration of NaIO3 (Day 0) and upon concluding the experiment (Day 14), the right eyes of the rabbits were treated with a mydriatic agent (1% midriacyl eye drops). Subsequently, the rabbits were anesthetized with a mixture of Zoletil®50 (Virbac, Carros, France) and Rompun^TM (Bayer AG, Leverkusen, Germany) through intravenous injection (marginal ear vein) at a dosage of 0.1 mL/kg. Fundus imaging was conducted using a fundus camera (TRC-50IX, TOPCON, Tokyo, Japan). The retinal images were analyzed using Image J software version 1.54d (NIH, Bethesda, MD, USA) to determine the area of degeneration in the RPE, with the RPE injury area being manually selected. The total area of the retina, excluding the optic nerve region, was defined as the total area. The proportion of degenerated area was calculated as a percentage using Equation (1). Degenerated area (%) = Degenerated area/Total area(1)

[11] = test system: NaIO3-induced retinal degeneration rabbits; experiment: H&E staining, ONL to total retinal thickness, in NaIO3-induced retinal degeneration rabbits; assay type: in vivo, chinchilla rabbits; settings: rabbit, Day 14, N=4, Figure 4D
Procedure: as §4, §5, §6
On the concluding day of the experiment (Day 14), the animals were anesthetized using the previously described mixture of Zoletil®50 and Rompun^TM, after which they were sacrificed. NaIO3-induced retinal degeneration eyes were then extracted, and the central cornea was punctured using an injection needle. Subsequently, the specimens were fixed in a 10% neutral buffered formalin solution. For histopathological examination, the fixed tissues were subjected to processes such as fixation, dehydration, paraffin embedding, and sectioning. H&E staining was then performed, and the proportion (%) of the thickness of the outer nuclear layer (ONL) to the overall retinal thickness was calculated using an Olympus BX-53 optical microscope (Olympus, Tokyo, Japan). Two slides were prepared per eyeball relative to the optic nerve. Measurements were taken at three points on each slide, amounting to a total of six values, which were averaged.

[12] = test system: ARPE-19 cells
Procedure: To confirm the cytotoxicity of CPP-conjugated FBP (4R-FBP, 5R-FBP, 6R-FBP, 9R-FBP) on ARPE-19 cells, the cells were plated in a 12-well plate at a density of 2 × 10^5/mL. After 24 h of treatment with various peptides (4R-FBP, 5R-FBP, 6R-FBP, 9R-FBP, and FBP), the CCK-8 assay was performed as per the manufacturer’s protocol.
Peptide toxicity was assessed
using CCK-8 assay in ARPE-19 cell. The data are presented as the mean ± SD (N=3 per group). ns

[13] = test system: Fas/FasL; settings: neuronal cells; previous study; cited from earlier work
[14] = test system: NaIO3-induced ARPE-19 cells; experiment: CCK-8 cell viability in NaIO3-induced ARPE-19 cells; assay type: cell-based, human; settings: NaIO3 10 mM, 24 h, FBP 100, 300, 500, 700, 900 μM, three independent experiments, Figure S2
Procedure: All experiments were performed using cells within specified passages.
Figure S2. Concentration -dependent cel l viability in NaI O3-indu ced ARPE-19 cells. Cell viability under concentration-dependent conditions wa s evaluated in NaIO3-induced ARPE- 19 cells. The data are presented as the mean ± SD from three independent experiments. ***P<0.001, and ns indicates not significa nt.

[15] = test system: NF-κB, ERK, and JNK; experiment: RT-PCR of cytokine and signaling pathway-related genes in NaIO3-treated ARPE-19 cells; assay type: cell-based, human; settings: ARPE-19, NaIO3 10 mM + FBP 700 μM, 24 h; Figure 1D
Procedure: as §3

[16] = eye drop application, peptides 10 mg/mL (50 μg/5 μL)
[17] = eye drops 5 mg/mL (250 μg/50 μL) twice daily for 14 days

Compound	therapeutic effect on integrity of the retinal layer (H&E staining) [1, 16]	levels of M2 macrophages compared to the mock group (qPCR, CD206) ([2]; eye drop application)	expression of Fas receptor, inflammatory cytokines, and macrophages compared to the mock group (qPCR) ([2]; eye drop application)	apoptosis levels in retina (TUNEL) ([3]; eye drop application)	inhibition of Fas/FasL-mediated apoptosis [4]	binding to Fas-expressing Jurkat cells [5]	size-dependent retinal delivery (confocal, Alexa647 signal) [6]	levels of cleaved caspase-3 and 8 (Western blot) [7]	expression of Fas (RT-PCR) [8]	apoptosis (annexin V/PI staining) compared with mock group [9]	RPE degeneration compared with mock treatment (fundus imaging) [10, 17]	proportion of thickness of ONL to total retinal thickness compared with mock group (H&E) ([11]; eye drops twice daily)	other results
C[C@@H]1C[C@H]2[C@@H]3CCC4=CC(=O)C=C[C@]4(C)[C@@]3(F)[C@@H](O)C[C@]2(C)[C@@]1(O)C(=O)CO [Dexa, dexamethasone, reference compound]	therapeutic effects	increased levels	decreased expression	lower apoptosis levels									
CDEHF [5-mer, 5-mer truncated FBP, CDEHF]					could not inhibit	demonstrated binding							
DEHF [4-mer]					could not inhibit	demonstrated binding	successfully delivered						
GGGRRGGG [Ctrl, nonspecific control peptide, GGGRRGGG, reference compound]	no therapeutic effect			higher apoptosis levels				upregulation	increased	no protective effects against apoptosis			
RRRRRRGGGGYCDEHFCY [6R-FBP]	therapeutic effects	increased levels	decreased expression	lower apoptosis levels			robust fluorescence signals				significant reduction in RPE degeneration	maintenance of the ONL	toxicity of CPP-conjugated FBP in retinal cells [12]: lower toxicity
YCDEHFCY [FBP]	no therapeutic effect			higher apoptosis levels				significant decrease	reduced	statistically significant decrease in apoptosis	significant reduction in RPE degeneration	maintenance of the ONL	inhibition of Fas/FasL ligation [13]: effective inhibition of Fas/FasL ligation; therapeutic effect on integrity of the retinal layer (H&E staining) ([1]; intravitreal injection 1 mg/mL (1 μg/1 μL)): therapeutic effects; RPE degeneration compared with mock treatment (fundus imaging) ([10]; single intravitreal injection 5 mg/mL, 40 μL): significant reduction in RPE degeneration; level of RPE degeneration on day 14 compared with mock group (fundus imaging) ([10]; eye drops twice daily for 14 days): significantly lower; level of RPE degeneration on day 14 compared with mock group (fundus imaging) ([10]; single intravitreal injection): significantly lower; FBP concentration at which viability of NaIO3-induced ARPE-19 cells was maximum [14]: exceeding 700 μM; levels of NF-κB, ERK, and JNK (RT-PCR) [15]: decreased levels; levels of M2 macrophages compared to the mock group (qPCR, CD206) ([2]; intravitreal injection): increased levels; expression of Fas receptor, inflammatory cytokines, and macrophages compared to the mock group (qPCR) ([2]; intravitreal injection): decreased expression; proportion of thickness of ONL to total retinal thickness compared with mock group (H&E) ([11]; single intravitreal injection): maintenance of the ONL; apoptosis levels in retina (TUNEL) ([3]; intravitreal injection): lower apoptosis levels; transfer to other organs (fluorescence signal vs normal group) [6]: not transferred to any other organ but the eyes
